The source made the active and inactive calls. Cut-off read from the data, not from the text of the source, for most assays here: actives have a measured EC50 and inactives only a lower limit.
Key:
[1] = target: Eukaryotic translation initiation factor 4E (Mus musculus, UniProt P63073); test: eIF4E–eIF4G protein interaction inhibitors, dose response, biochemical, TR-FRET (AID 855); format: functional;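 note: potency for disrupting eIF4E binding to eIF4GI seen as loss of FRET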
cells [2] = test: cells
[3] = HEp-2 cell cytotoxicity, dose response, cytotoxicity control for RSV inhibitor project, HTS (AID 2410); format: functional; conditions: human respiratory syncytial virus
BJ [4] = test: cytotoxicity toward BJ-TERT fibroblasts, dose response, cell-based, RAS-independent, luminescence (AID 1933); format: functional; conditions: Homo sapiens
[5] = target: FAD-linked sulfhydryl oxidase ALR (Homo sapiens, UniProt P55789); test: inhibitors of human ALR sulfhydryl oxidase, dose response, biochemical, H2O2 detection, luminescence, cherry-pick (AID 493248)
BJ [6] = test: cells; format: functional, cell-based; conditions: Homo sapiens
cells [7] = format: functional, cell-based
[8] = luciferase reporter signal reduction – luminescence, H4-C neuroglioblastoma cells, dose response (AID 2458); format: functional, cell-based;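 note: H4 neuroglioblastoma cells stably carrying a luciferase reporter gene fusion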
[9] = inhibitors of SNCA 5'UTR-driven reporter translation, confirmation, H4 neuroglioma cells, luminescence (AID 1988); format: functional, cell-based
[10] = inhibitors of firefly luciferase expression or activity, dose response, H4 neuroglioma cells, luminescence (AID 1990); format: functional, cell-based
[11] = cytotoxicity toward DRD oncogenic fibroblasts, dose response, cell-based, non-viral oncogenic, luminescence (AID 1934); format: functional; conditions: Homo sapiens
[12] = inhibitors of SNCA 5'UTR-driven translation, confirmation, luminescence, H4 neuroglioblastoma cells, dose confirmation (AID 2454); format: functional, cell-based;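 note: H4 neuroglioblastoma cells carrying an alpha-synuclein 5'UTR luciferase reporter; potency for inhibition of the luciferase signal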
[13] = Luminescence Cell-Based Dose Response HTS to Identify Inhibitors of 5'UTR Stem-Loop Driven Prion Protein mRNA Translation in H4 Neuroglioblastoma Cells. [Related pubchem assays: 1827 (Project Summary), 1813 (Primary HTS)]; format: functional
[14] = cytotoxicity toward NIH3T3 fibroblasts, dose response, counter-screen, cell-based, ATP luminescence, mouse fibroblasts (AID 2010); format: functional;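 note: cells exposed to compound for about 90 hours before reading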
BJ [15] = test: cytotoxicity toward BJ-TERT-LT-ST fibroblasts, dose response, cell-based, RAS-independent, luminescence (AID 1935); format: functional; conditions: Homo sapiens;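 note: BJ fibroblasts immortalized with TERT plus LT and ST oncogenes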
[16] = inhibitors of intracellular T. cruzi replication, confirmation, NIH3T3 host cells, beta-gal luminescence (AID 2044); format: functional, cell-based;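 note: intracellular parasites grown in NIH/3T3 mouse fibroblasts as host cells; luminescent beta-galactosidase reporter signal from transgenic T. cruzi replicating inside host cells; inhibitors lower the luminescence signal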
[17] = target: Heat shock protein HSP 90-alpha (Homo sapiens, UniProt P07900); format: functional, organism-based
[18] = target: T1, Polyadenylate-binding protein 1 (Homo sapiens, UniProt P11940); test: PABP1 MLLE–PAM2 interaction inhibitors, dose response, miRNA deadenylation inhibitor project, biochemical, fluorescence polarization, Cy5-PAM2 peptide, secondary (AID 602260); format: functional; conditions: read-out: IC50_Mean
[19] = target: T1, Polyadenylate-binding protein 1; test: PABP1 MLLE–PAM2 binding inhibitor potency, dose response, biochemical, fluorescence polarization, FITC-PAM2 peptide (AID 602259); format: functional; conditions: read-out: IC50_Mean
Streptococcus = test: Group A Streptococcus viability loss, dose response, counter-screen for streptokinase expression inhibitor project, luminescence, BacTiterGlo (AID 1915); format: functional, organism-based;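 note: potency for reduction of bacterial viability or growth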
[20] = cytotoxicity in KRAS-transformed pancreatic duct cells, primary screen, cell-based, fluorescence, HTS (AID 431); format: functional; conditions: Homo sapiens;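 note: cell line used: HPDE-C7K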
[21] = cytotoxicity in HPDE-C7 cells, cell-based, fluorescence, HTS (AID 430); format: functional; conditions: Homo sapiens
[22] = system: Streptococcus sp. 'group A'; test: growth inhibition of control SK(-) GAS strain, dose response, counter-screen for streptokinase expression inhibitor project, luminescence, kanamycin, BacTiterGlo, confirmation (AID 1900); format: functional, organism-based
[23] = THP-1 cell cytotoxicity, dose response, cytotoxicity control for Vif-APOBEC3G degradation inhibitor project, THP-1 cells (AID 1117359); format: functional; conditions: Human immunodeficiency virus 1, THP-1

T1 sequence (P11940 whole entry): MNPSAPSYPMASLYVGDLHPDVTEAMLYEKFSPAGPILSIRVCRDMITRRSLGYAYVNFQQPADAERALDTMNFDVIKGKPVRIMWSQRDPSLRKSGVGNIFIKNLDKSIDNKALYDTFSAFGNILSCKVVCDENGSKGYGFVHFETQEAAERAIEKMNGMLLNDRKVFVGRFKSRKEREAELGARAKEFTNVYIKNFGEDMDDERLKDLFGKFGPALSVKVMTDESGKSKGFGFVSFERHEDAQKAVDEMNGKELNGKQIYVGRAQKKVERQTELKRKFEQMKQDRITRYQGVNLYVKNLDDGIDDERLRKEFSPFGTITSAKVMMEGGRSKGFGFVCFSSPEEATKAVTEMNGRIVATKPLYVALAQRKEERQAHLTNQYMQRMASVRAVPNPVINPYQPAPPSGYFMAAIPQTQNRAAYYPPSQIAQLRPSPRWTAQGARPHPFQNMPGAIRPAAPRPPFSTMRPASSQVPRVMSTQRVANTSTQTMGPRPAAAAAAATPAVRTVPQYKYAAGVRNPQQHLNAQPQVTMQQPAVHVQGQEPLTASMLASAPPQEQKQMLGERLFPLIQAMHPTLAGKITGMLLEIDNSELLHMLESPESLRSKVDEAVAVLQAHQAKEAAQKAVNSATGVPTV
Sequence of FAD-linked sulfhydryl oxidase ALR (P55789 whole entry): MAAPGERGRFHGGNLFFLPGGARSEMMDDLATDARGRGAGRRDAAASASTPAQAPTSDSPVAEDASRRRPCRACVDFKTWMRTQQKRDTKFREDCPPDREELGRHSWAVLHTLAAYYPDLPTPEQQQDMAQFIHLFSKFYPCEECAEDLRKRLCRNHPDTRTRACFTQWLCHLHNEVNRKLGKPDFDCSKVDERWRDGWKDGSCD
Sequence of Eukaryotic translation initiation factor 4E (P63073 whole entry): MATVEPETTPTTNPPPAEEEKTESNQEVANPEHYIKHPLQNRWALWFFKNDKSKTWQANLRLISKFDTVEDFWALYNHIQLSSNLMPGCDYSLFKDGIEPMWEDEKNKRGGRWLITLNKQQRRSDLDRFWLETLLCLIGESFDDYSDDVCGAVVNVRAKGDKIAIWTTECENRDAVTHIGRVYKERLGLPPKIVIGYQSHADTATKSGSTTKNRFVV

Which IC50 [1] does the source give for `CC(=O)C1=C(c2ccccc2)OC(N)=C(C#N)C1c1ccc(O)cc1` (stereo unspecified) here?
Its IC50 is > 64 µM (inactive).

Which IC50 (cells [2]) does the source give for `COc1ccc(N(CC(=O)NC2CCCCC2)C(=O)c2ccc(C)s2)c(OC)c1` here?
The IC50 was 10.9 µM (active).

And the CC50 [3]?
The CC50 was 43.8 µM (active).

Which results are given for `COc1ccc(OC)c(Nc2c3c(nc4ccccc24)CCC3)c1`?
EC50 (BJ [4]): 463 nM (active); AC50 [5]: 16.2 µM (active); EC50 (BJ [6]): 15 µM (inconclusive); EC50 (cells [7]): 804 nM (active); EC50 [8]: 716 nM (active); EC50 [9]: < 100 nM (active); EC50 [10]: 3.29 µM (active); EC50 [11]: 12.4 µM (active); EC50 [12]: 1.18 µM (active); EC50 [13]: 355 nM (active); EC50 [14]: 432 nM (active); EC50 (BJ [15]): 284 nM (inconclusive); EC50 [16]: 3.15 µM (active)

Which AC50 [17] does the source give for `O=C(O)c1ccccc1NC(c1ccccc1)c1ccc2cccnc2c1O` (stereo unspecified) here?
Its AC50 is 7.23 µM (active).

What does the source list for `Cc1[nH]n(C2=NCCS2)c(=O)c1N=Nc1ccccc1`?
IC50 [18]: > 66 µM (inactive); IC50 [19]: > 66 µM (inactive)

Which IC50 (cells [2]) does the source give for `COc1ccccc1/C=C/C(=O)NCC(=O)N/N=C(/C)c1ccc(Cl)cc1` here?
Its IC50 is 25.4 µM (active).

What does the source list for `Cc1cc(C)c(S(=O)(=O)N2CCCCC2CCNC(=O)C(=O)NC2CC2)c(C)c1` (stereo unspecified)?
IC50 (cells [2]): 4.37 µM (active); CC50 [3]: 20.3 µM (active)

Which results are given for `C=CCN1C(=O)NC(=O)/C(=C(/CC)Nc2ccc(N(CC)CC)cc2)C1=O`?
EC50 (Streptococcus): 2.03 µM (active); EC50 [20]: > 20 µM (not active); EC50 [21]: > 20 µM (not active); EC50 [22]: 1.23 µM (active)

With `CCOC(=O)C1=C(N)N2C(=O)C(C)SC2=C(C(=O)OC)C1c1ccccc1OC` (stereo unspecified) as the molecule, how does the AC50 [17] read?
The AC50 was 0.982 µM (active).

What does the source list for `COc1ccccc1OCC(=O)Nn1c(=S)[nH]c2ncccc2c1=O`?
IC50 [18]: > 66 µM (inactive); IC50 [19]: > 66 µM (inactive)

For `CCCc1cc(-c2[nH]ncc2-c2ccc3c(c2)OCCCO3)c(O)cc1O`, which EC50 [20] is on record?
The EC50 was 8.05 µM (active).

What about the EC50 [21] of the same molecule?
The EC50 was 8.22 µM (active).

Which results are given for `CCCc1ccc(Oc2c(C)n[nH]c2-c2ccc(O)c(C)c2O)cc1`?
EC50 [20]: 4.42 µM (active); EC50 [21]: 4.88 µM (active)

Which IC50 [18] does the source give for `CC(=O)NNC(=O)CN1C(=O)/C(=C/c2ccccc2)SC1=S` here?
Its IC50 is > 66 µM (inactive).

What about the IC50 [19] of the same molecule?
The IC50 was > 66 µM (inactive).

With `COc1cc(SC)ccc1C(=O)Nc1c(C)cccc1C` as the molecule, how does the CC50 [23] read?
Its CC50 is > 40 µM (active).
